From ChEMBL document CHEMBL3612043, “Synthesis and biological evaluation of 6-substituted indolizinoquinolinediones as catalytic DNA topoisomerase I inhibitors” (Eur J Med Chem, 2015) come the findings set out here.

In assay [1] the target is T1, DNA topoisomerase 1 (Homo sapiens) (UniProt P11387).
T1 sequence (whole entry): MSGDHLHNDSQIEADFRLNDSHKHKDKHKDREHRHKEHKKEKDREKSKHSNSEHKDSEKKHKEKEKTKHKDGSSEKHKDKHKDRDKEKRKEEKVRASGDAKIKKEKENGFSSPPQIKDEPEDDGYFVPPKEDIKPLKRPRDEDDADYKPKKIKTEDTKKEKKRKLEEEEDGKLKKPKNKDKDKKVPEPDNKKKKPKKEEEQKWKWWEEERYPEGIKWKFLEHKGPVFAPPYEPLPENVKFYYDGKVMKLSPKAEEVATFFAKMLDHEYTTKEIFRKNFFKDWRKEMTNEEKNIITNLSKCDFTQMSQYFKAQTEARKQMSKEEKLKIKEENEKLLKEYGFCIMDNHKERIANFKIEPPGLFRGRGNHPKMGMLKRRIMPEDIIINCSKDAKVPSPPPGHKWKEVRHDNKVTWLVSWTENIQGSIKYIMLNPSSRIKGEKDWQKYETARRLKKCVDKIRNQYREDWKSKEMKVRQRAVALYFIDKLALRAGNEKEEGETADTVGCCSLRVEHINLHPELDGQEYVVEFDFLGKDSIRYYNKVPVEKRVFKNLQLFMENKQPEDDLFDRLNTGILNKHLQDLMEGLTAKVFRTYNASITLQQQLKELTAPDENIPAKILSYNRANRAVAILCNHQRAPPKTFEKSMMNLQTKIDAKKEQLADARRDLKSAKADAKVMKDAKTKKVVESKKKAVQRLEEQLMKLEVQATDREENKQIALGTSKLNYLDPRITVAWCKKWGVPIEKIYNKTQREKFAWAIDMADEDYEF
Nature of the assay: Induction of recombinant Top1 (unknown origin) assessed as 3'-[32P]-labeled 117-bp DNA oligonucleotide cleavage after 20 mins.

A short description of assay [2]: Inhibition of calf thymus Top1-mediated pBR322 DNA relaxation preincubated for 15 mins measured after 30 mins by ethidium bromide staining. Details: species or system Bos taurus.
The species named for the next assay is Bos taurus. Nature of the assay: Inhibition of calf thymus Top1-mediated pBR322 DNA relaxation at 25 uM preincubated for 15 mins measured after 30 mins by ethidium bromide staining relative to camptothecin.
In a further assay the test system is CA46. Nature of the assay: Cytotoxicity against human CA46 cells after 48 hrs by MTT assay. Type of assay: functional, cell-based. The following applies: CA46, 48 h.
In the next assay the test system is HL-60. Nature of the assay: cells. The following applies: Homo sapiens, HL-60, 48 h.
Another assay deals with HeLa. Nature of the assay: cells. The following applies: Homo sapiens, 48 h.
The test system of another assay is A549. Nature of the assay: cells. The following applies: Homo sapiens, A549, 48 h.
The target in assay [3] is T1, DNA topoisomerase 1 (Homo sapiens). As to the kind of experiment: Inhibition of Top1 (unknown origin)-mediated unwinding of relaxed pBR322 DNA preincubated for 10 mins measured after 30 mins by UV transilluminator analysis.

Molecules are shown by their SMILES. The source made the active and inactive calls. No cut-off for these calls is given here. Where only a bound is given, the exact number is not on record here.

Description for A549: Cytotoxicity against human A549 cells after 48 hrs by MTT assay
Description for HL-60: Cytotoxicity against human HL60 cells after 48 hrs by MTT assay
Description for HeLa: Cytotoxicity against human HeLa cells after 48 hrs by MTT assay

In general, IC50 refers to the concentration that gives 50% inhibition. For the compound `CC[C@@]1(O)C(=O)OCc2c1cc1n(c2=O)Cc2cc3ccccc3nc2-1` [CAMPTOTHECIN], the result in assay [1] was inactive. Also, the IC50 in assay [2] worked out at 25 µM; in the assay with CA46, 520 nM; with HL-60, 15 nM; with HeLa it was 14000 nM; in the assay on A549 it was 1600 nM. The Top1 relaxation inhibition relative to camptothecin (%) in the assay listed under Bos taurus is 81%.

On to `CN1CCN(CCNC(=O)c2c3c(n4ccccc24)C(=O)c2ncccc2C3=O)CC1`, for which the result in assay [1] was inactive. In addition, the Top1 relaxation inhibition relative to camptothecin (%) in the assay filed under Bos taurus was greater than 120%. In assay [3], the inhibition entry is “Active”. The IC50 in the assay on CA46 amounted to 1100 nM; with HL-60, 2800 nM; in the assay with HeLa, 1000 nM; in the assay on A549 it was 440 nM.

As to `CCN(CC)CCCNC(=O)c1c2c(n3ccccc13)C(=O)c1ncccc1C2=O`, the outcome in assay [1] was inactive. Besides, the Top1 relaxation inhibition relative to camptothecin (%) in the assay listed under Bos taurus is greater than 120%. Further, in assay [3], the inhibition entry was “Active”. For the same compound, the half-inhibitory concentration (IC50) with CA46 is 1200 nM; in the assay on HL-60, 1400 nM; in the assay with HeLa, 1300 nM; with A549, 1000 nM.
